{"source": "patent US11951146B2", "about": "“Stimulation of NK cell activity by using a combination of broccoli, Nigella Sativa, Green Tea, and pterostilbene alone and together with metformin” (Therapeutic Solutions International, Inc., priority 2020, dated 2024)", "origin": "cited, not measured here", "key": {"[1]": {"tested_on": "LPS-challenged macrophages", "settings": "pre-incubated 6 h, then LPS 24 h"}, "[2]": {"tested_on": "primary peritoneal macrophages"}, "LPS-induced ARDS [3]": {"tested_on": "LPS-induced ARDS"}, "[4]": {"tested_on": "lipopolysaccharide-induced inflammatory reactions"}, "sepsis": {"tested_on": "sepsis", "settings": "for concentration of IL-la: controls 1187.0±278.64"}, "polymicrobial sepsis [5]": {"tested_on": "polymicrobial sepsis", "settings": "10 mg/kg intraperitoneally at 1 and 6 h after CL2P and every 12 h"}, "[6]": {"tested_on": "myocardial ischemia and reperfusion", "settings": "EGCG 10 mg/kg intravenously then 10 mg/kg/h infusion"}, "experimental colitis": {"tested_on": "experimental colitis", "settings": "50 and 100 mg/kg/day EGCG"}, "[7]": {"tested_on": "lipopolysaccharide-activated macrophages"}, "polymicrobial sepsis [8]": {"tested_on": "polymicrobial sepsis", "settings": "10 mg/kg intraperitoneally, 72 h after CL2P"}, "[9]": {"tested_on": "lethal endotoxemia / lethal sepsis"}, "LPS-induced ARDS [10]": {"tested_on": "LPS-induced ARDS", "settings": "EGCG 10 mg/kg ip"}, "[11]": {"tested_on": "interleukin-1, interleukin-6, interleukin-8, TNF-alpha"}, "[12]": {"settings": "rat, in vivo"}}, "note": "Where two headings read alike, the source gives them in different places.", "data": [{"compound": "C[S+]([O-])CCCCN=C=S", "note": "(stereo not shown) [sulforaphane, 1-isothiocyanato-4-(methylsulfinyl)-butane]", "values": [{"measurement": "expression of NO and cytokines", "setting": "[1]", "result": "prevent the expression"}, {"measurement": "HO-1 expression", "setting": "[2]; LPS-stimulated Nrf2 (+/+) primary peritoneal macrophages", "result": "significantly augmented"}, {"measurement": "LPS-stimulated mRNA expression, protein expression and production of TNF-alpha, IL-1beta, COX-2 and iNOS", "setting": "[2]; Nrf2 (+/+) primary peritoneal macrophages, pretreatment", "result": "potently inhibited"}, {"measurement": "anti-inflammatory effect", "setting": "[2]; Nrf2 (−/−) primary peritoneal macrophages", "result": "attenuated"}, {"measurement": "Nrf2/antioxidant response element (ARE) pathway", "setting": "LPS-induced ARDS [3]; pre-treatment", "result": "activated"}, {"measurement": "LDH activity, wet-to-dry ratio of the lungs, serum IL-6 and TNF-α, nuclear factor-κB protein expression", "setting": "LPS-induced ARDS [3]; sulforaphane 50 mg/kg, LPS 5 mg/kg 3 days later", "result": "significantly decreased"}, {"measurement": "PGE2 production, COX-2 and MMP-9 protein expression, iNOS activity", "setting": "LPS-induced ARDS [3]; sulforaphane 50 mg/kg, LPS-induced ALI", "result": "significantly inhibited"}]}, {"compound": "CC1=CC(=O)C(C(C)C)=CC1=O", "note": "[thymoquinone]", "values": [{"measurement": "lipopolysaccharide-induced inflammatory reactions", "setting": "[4]", "result": "suppressed effectively"}, {"measurement": "concentration of nitric oxide", "setting": "[4]; lipopolysaccharide-induced", "result": "reduced significantly"}, {"measurement": "concentration of IL-la", "setting": "sepsis; 0.75 mg/kg thymoquinone dose", "result": "310.8 ± 70.93", "unit": "pg/mL"}, {"measurement": "IL-1β levels", "setting": "sepsis; 0.75 mg/kg thymoquinone, controls 5505.2±333.96", "result": "2885.0 ± 553.98", "unit": "pg/mL"}, {"measurement": "concentration of IL-la", "setting": "sepsis; 1 mg/kg group", "result": "428.3 ± 71.32", "unit": "pg/mL"}, {"measurement": "levels of TNF-α and IL-2", "setting": "sepsis; P values=0.1817 and 0.0851", "result": "relatively lower levels"}, {"measurement": "reduction of mortality", "setting": "sepsis; mice, sepsis", "result": "80-90%"}, {"measurement": "renal and hepatic biomarker profiles", "setting": "sepsis; mice, sepsis", "result": "improved"}]}, {"compound": "epigallocatechin-3-gallate [EGCG]", "values": [{"measurement": "TNF-α-induced nuclear factor-κB (NF-κB) activity", "setting": "macrophage foam cells", "result": "inhibition"}, {"measurement": "TNF-α-induced downregulation of ABCA1 and decrease in cholesterol efflux to apoA1", "setting": "macrophage foam cells; pretreatment with EGCG", "result": "attenuated"}, {"measurement": "hypotension (mean arterial blood pressure)", "setting": "polymicrobial sepsis [5]", "result": "significantly improved"}, {"measurement": "myocardial damage and myeloperoxidase activity", "setting": "[6]", "result": "reduced"}, {"measurement": "plasma IL-6 and creatine phosphokinase levels", "setting": "[6]", "result": "decreased"}, {"measurement": "HIF-la and STAT3 protein expression in the colon", "setting": "experimental colitis", "result": "decreasing"}, {"measurement": "plasma levels of IL-1β and TGF-β1", "setting": "experimental colitis", "result": "increasing"}, {"measurement": "release of IL-6 and IL-17", "setting": "experimental colitis", "result": "reduce the release"}, {"measurement": "NO production", "setting": "[7]; cells cotreated with EGCG and LPS", "result": "Inhibition"}, {"measurement": "activation of nuclear factor-kappaB", "setting": "[7]; electrophoretic mobility shift assay", "result": "blocked the activation"}, {"measurement": "survival", "setting": "polymicrobial sepsis [8]", "result": "significantly improved"}, {"measurement": "rescue from lethal sepsis", "setting": "[9]; first dose 24 hours after cecal ligation and puncture", "result": "rescued"}, {"measurement": "protection against lethal endotoxemia", "setting": "[9]; intraperitoneal", "result": "protected"}, {"measurement": "expression of IκB-α", "setting": "LPS-induced ARDS [10]", "result": "increased the expression"}, {"measurement": "expression of TLR-4, MyD88, TRIF and p-p65 in the lung tissue", "setting": "LPS-induced ARDS [10]", "result": "alleviated the expression"}, {"measurement": "expression of TNF-α, IL-1β and IL-6 in lung, serum and bronchoalveolar lavage fluid", "setting": "LPS-induced ARDS [10]", "result": "significantly decreased"}, {"measurement": "expression of p65", "setting": "LPS-induced ARDS [10]", "result": "had no influence"}]}, {"compound": "trans-3,5-dimethoxy-4-hydroxystilbene [pterostilbene]", "values": [{"measurement": "inhibition of interleukin-1, interleukin-6, interleukin-8 and TNF-alpha", "setting": "[11]", "result": "inhibition"}, {"measurement": "bioavailability", "setting": "[12]", "result": 80, "unit": "%"}]}]}
